The results in this text go back to patent US20240067617A1 (Albireo AB, priority 2022, published 2024).

What is called IC50 is the concentration needed to halve the response being measured.

One assay concerns the target T1, hLBAT (Homo sapiens, UniProt Q14973).
T1 construct: expressed in transfected cells; kept under Geneticin selection
T1 sequence (Q14973 1-349): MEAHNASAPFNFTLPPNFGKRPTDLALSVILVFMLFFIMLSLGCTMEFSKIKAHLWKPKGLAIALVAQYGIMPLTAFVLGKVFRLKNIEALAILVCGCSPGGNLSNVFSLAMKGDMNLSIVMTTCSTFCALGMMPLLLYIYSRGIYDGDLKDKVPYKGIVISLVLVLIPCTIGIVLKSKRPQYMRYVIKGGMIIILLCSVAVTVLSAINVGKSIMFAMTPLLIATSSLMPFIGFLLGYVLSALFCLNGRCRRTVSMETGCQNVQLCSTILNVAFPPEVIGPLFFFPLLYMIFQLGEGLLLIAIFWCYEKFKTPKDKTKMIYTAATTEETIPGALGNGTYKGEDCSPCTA
Description: LBAT (h/m) assay: 3H-taurocholic acid uptake in human LBAT-overexpressing cells. Particulars: 0.3 μM 3H-taurocholic acid + 7.5 μM cold taurocholic acid, 20 minutes at 37° C. The format is cell-based. The essentials: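 Human or mouse LBAT-overexpressing cells given 10-point inhibitor series with 0.3 μM 3H-taurocholic acid plus cold taurocholic acid (7.5 μM human, 25 μM mouse), 0.2% DMSO, for 20 min at 37° C. Stopped on ice, washed with 1 mM unlabelled taurocholic acid; uptake measured by scintillation counting.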

The target of the next assay is T2, hIBAT (Homo sapiens, UniProt Q12908).
T2 construct: expressed in transfected cells; kept under Puromycin selection
T2 sequence (Q12908 1-348): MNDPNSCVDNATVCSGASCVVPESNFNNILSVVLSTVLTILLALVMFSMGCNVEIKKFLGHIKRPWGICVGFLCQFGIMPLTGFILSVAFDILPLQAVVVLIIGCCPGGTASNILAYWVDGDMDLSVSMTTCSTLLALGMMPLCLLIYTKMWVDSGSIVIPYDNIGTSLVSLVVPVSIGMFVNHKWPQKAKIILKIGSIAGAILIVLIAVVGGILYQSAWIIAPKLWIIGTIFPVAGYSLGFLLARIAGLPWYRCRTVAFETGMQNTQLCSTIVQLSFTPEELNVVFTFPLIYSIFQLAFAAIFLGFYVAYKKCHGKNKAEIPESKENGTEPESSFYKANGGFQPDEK
Description: IBAT (h/m) assay: 3H-taurocholic acid uptake in human IBAT-overexpressing cells. The class given is cell-based. Particulars: 0.25 μM 3H-taurocholic acid + 5 μM cold taurocholic acid, 20 minutes at 37° C., highest test concentration 10 μM. The essentials: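 Human or mouse IBAT-overexpressing cells cultured 48 h, then exposed for 20 min at 37 °C to compounds (top 10 μM, 3-fold, 10 points; 0.2% DMSO) with 0.25 μM 3H-taurocholic acid plus 5 μM cold taurocholic acid. Uptake stopped on ice, cells washed with cold 1 mM taurocholic acid, radioactivity counted by scintillation.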

Turning to `CCCCC1(CCCC)CN(c2ccccc2)c2cc(OC)c(CSCC(=O)O)cc2S(=O)(=O)C1` [Example 31, 2-(((3,3-dibutyl-7-methoxy-1,1-dioxido-5-phenyl-2,3,4,5-tetrahydro-1,5-benzothiazepin-8-yl)methyl)thio)acetic acid], the IC50 on hLBAT was over 3330 nM; on hIBAT, 1.3 nM.

Turning to `CCCCC1(CCCC)CN(c2ccc(F)cc2)c2cc(OC)c(CSCC(=O)O)cc2S(=O)(=O)C1` [Example 32, 2-(((3,3-dibutyl-5-(4-fluorophenyl)-7-methoxy-1,1-dioxido-2,3,4,5-tetrahydro-1,5-benzothiazepin-8-yl)methyl)thio)acetic acid], the values for the half-inhibitory concentration (IC50) at hLBAT and on hIBAT were over 3330 nM and 0.6 nM, respectively.

With `CCCCC1(CCCC)CN(c2ccccc2)c2cc(OC)c(CSC(C)(C)C(=O)O)cc2S(=O)(=O)C1` [Example 43, 2-(((3,3-dibutyl-7-methoxy-1,1-dioxido-5-phenyl-2,3,4,5-tetrahydro-1,5-benzothiazepin-8-yl)methyl)thio)-2-methylpropanoic acid], the IC50 at hLBAT came out at 251 nM; on hIBAT it was 861 nM.

Take `CCCCC1(CC)CN(c2ccccc2)c2cc(N(C)C)c(CSCC(=O)O)cc2S(=O)(=O)N1` (centres unmarked) [Example 46, 2-(((3-butyl-7-(dimethylamino)-3-ethyl-1,1-dioxido-5-phenyl-2,3,4,5-tetrahydro-1,2,5-benzothiadiazepin-8-yl)methyl)thio)acetic acid]: the IC50 is over 1000 nM at hLBAT and 4.8 nM on hIBAT.

For `CCCC[C@@H]1CN(c2ccccc2)c2cc(N(C)C)c(CSCC(=O)O)cc2S(=O)(=O)N1` [Example 49, (R)-2-(((3-butyl-7-(dimethylamino)-1,1-dioxido-5-phenyl-2,3,4,5-tetrahydro-1,2,5-benzothiadiazepin-8-yl)methyl)thio)acetic acid], the values for the half-maximal inhibitory concentration (IC50) at hLBAT and on hIBAT were 248 nM and 2320 nM, respectively.

For `CCCC[C@@H]1CN(c2ccccc2)c2cc(SC)c(CSCC(=O)O)cc2S(=O)(=O)N1` [Example 50, (R)-2-(((3-butyl-7-(methylthio)-1,1-dioxido-5-phenyl-2,3,4,5-tetrahydro-1,2,5-benzothiadiazepin-8-yl)methyl)thio)acetic acid], the half-inhibitory concentration (IC50) came to 50 nM at hLBAT and 558 nM on hIBAT.

`CCCC[C@@H]1CN(c2ccccc2)c2cc(OC)c(CSCC(=O)O)cc2S(=O)(=O)N1` [Example 51, (R)-2-(((3-butyl-7-methoxy-1,1-dioxido-5-phenyl-2,3,4,5-tetrahydro-1,2,5-benzothiadiazepin-8-yl)methyl)thio)acetic acid]: the 50% inhibitory concentration (IC50) on hLBAT was 142 nM; on hIBAT, 2610 nM.

In the case of `CCCCC1(C)CN(c2ccccc2)c2cc(N(C)C)c(CSCC(=O)O)cc2S(=O)(=O)N1` (centres unmarked) [Example 52, 2-(((3-Butyl-7-(dimethylamino)-3-methyl-1,1-dioxido-5-phenyl-2,3,4,5-tetrahydro-1,2,5-benzothiadiazepin-8-yl)methyl)thio)acetic acid], the 50% inhibitory concentration (IC50) on hLBAT was over 1000 nM; on hIBAT, 7.4 nM.

As for `CCCCC1(C)CN(c2ccccc2)c2cc(OC)c(CSCC(=O)O)cc2S(=O)(=O)N1` (centres unmarked) [Example 53, 2-(((3-butyl-7-methoxy-3-methyl-1,1-dioxido-5-phenyl-2,3,4,5-tetrahydro-1,2,5-benzothiadiazepin-8-yl)methyl)thio)acetic acid], the half-maximal inhibitory concentration (IC50) at hLBAT was over 1000 nM; at hIBAT it was 14 nM.

For `CCCCC1(C)CN(c2ccccc2)c2cc(SC)c(CSCC(=O)O)cc2S(=O)(=O)N1` (centres unmarked) [Example 54, 2-(((3-Butyl-3-methyl-7-(methylthio)-1,1-dioxido-5-phenyl-2,3,4,5-tetrahydro-1,2,5-benzothiadiazepin-8-yl)methyl)thio)acetic acid], the results for the half-maximal inhibitory concentration (IC50) on hLBAT and on hIBAT were over 1000 nM and 0.1 nM, respectively.
